Patent publication US5973006A, “Fluoro-substituted benzoylpropionic acid derivatives” (Pharmacia & Upjohn S.p.A., priority 1995, dated 1999)
Counter-ions that a name gives are not always drawn.

Assays:
[1] = Solubility in water at the indicated pH; assay type: physicochemical
Text: The following Table 2 reports the solubility in water at the indicated pH of a representative compound of the invention (R,S)-2-amino-4-(3',4'-difluorophenyl)-4-oxo-2-butanoic acid hydrochloride (PNU 156830) in comparison with the known reference compound of WO 95/03271: (R,S)-2-amino-4-(3',4'-dichlorophenyl)-4-oxo-butanoic acid hydrochloride (internal code: PNU 156561).

kynurenine-3-hydroxylase [2] = target: T1, kynurenine-3-hydroxylase (Rattus norvegicus, UniProt O88867); assay: Kynurenine-3-hydroxylase assay in the rat brain; assay type: biochemical; set-up: from tissue; conditions: rat brain homogenate, 50 μM L-kynurenine, 60 min; read-out: Enzyme Inhibition (Brain) IC50
T1 sequence (O88867 whole entry): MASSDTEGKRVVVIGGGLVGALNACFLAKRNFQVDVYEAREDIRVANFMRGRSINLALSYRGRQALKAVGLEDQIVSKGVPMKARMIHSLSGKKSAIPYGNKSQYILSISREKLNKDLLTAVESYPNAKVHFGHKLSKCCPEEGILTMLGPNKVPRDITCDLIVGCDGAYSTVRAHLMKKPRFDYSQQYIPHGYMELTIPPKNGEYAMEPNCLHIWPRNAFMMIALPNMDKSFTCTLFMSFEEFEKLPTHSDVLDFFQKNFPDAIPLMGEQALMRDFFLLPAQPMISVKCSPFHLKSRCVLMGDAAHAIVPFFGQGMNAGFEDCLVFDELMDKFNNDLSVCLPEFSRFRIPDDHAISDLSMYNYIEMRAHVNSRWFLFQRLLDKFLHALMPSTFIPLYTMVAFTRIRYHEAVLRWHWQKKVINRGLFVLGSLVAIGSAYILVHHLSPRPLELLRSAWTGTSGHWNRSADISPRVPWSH
Procedure: Kynurenine-3-hydroxylase Assay in the Rat Brain
Brain was homogenized in ice-cold 0.32 M sucrose and centrifuged at 12000×g for 30 min at 4° C. The pellet was washed three times with 0.32 M sucrose by centrifugation and suspended in 0.14 M KCl in 20 mM K-phosphate buffer at pH 7 (1 g tissue in 2 ml buffer). The reaction mixture contained: 75 μl of suspended homogenate; 100 μl of substrate solution containing 50 mM K-phosphate buffer pH 7.5, 2 MM MgCl2, 0.4 mM NADPH, and 50 μM L-kynurenine (final concentration),and 25 μl of different concentrations of inhibitor solutions. The reaction was stopped by addition of 200 μl of 1 M HClO4 after 60 min incubation. L-3-hydroxykynurenine formed was quantified by HPLC with coulometric detection at a working voltage of +0.2 V. The column was a 10 cm C18 reversed phase (3 μm. The mobile phase consisted of 950 ml distilled water, 20 ml acetonitrile, 9 ml triethylamine, 5.9 ml phosphoric acid, 100 mg sodium EDTA and 1.5 g heptanesulfonic acid. The flow rate was 1 ml/min.

kynurenine-3-hydroxylase [3] = target: T1, kynurenine-3-hydroxylase; assay: Kynurenine-3-hydroxylase assay in the rat liver (mitochondrial extract); assay type: biochemical; set-up: Rat liver mitochondrial extract was used as enzymatic preparation for this assay; from tissue; host or cells: rat liver mitochondrial extract; conditions: 0.025 mM L-kynurenine, 37° C., 30 min, read-out: Enzyme Inhibition (Liver) IC50
Procedure: Kynurenine-3-hydroxylase Assay in the Rat Liver
The assay for kynurenine 3-hydroxylase was based on the enzymatic synthesis of tritiated water during the hydroxylation reaction. Radiolabeled water was quantified following selective adsorption of the isotopic substrate and its metabolite with activated charcoal.
Rat liver mitochondrial extract was used as enzymatic preparation for this assay.
The assay for kynurenine 3-hydroxylase activity was carried out at 37° C. for a time of 30 min. The reaction mixture of a total volume of […] was constituted of […] of suspended extract, 100 mM Tris/Cl buffer pH 8.1, 10 mM EDTA, 100 mM KCl, 0.8 mM NADPH, 0.025 mM L-kynurenine, […] L-(3,5-^3 H)Kynurenine (10 Ci/mmol) and […] of different concentration of inhibitor solutions. After the incubation the reaction was terminated by the addition of 1 mL of 7.5% (w/v) activated charcoal, vortexed and centrifugated for 7 min.
A […] aliquot of supernatant was counted by scintillation spectroscopy in 5 ml of liquid scintillation.

Row | solubility ([1]; pH = 7.4) [mg/mL] | solubility ([1]; pH = 8) [mg/mL] | solubility ([1]; pH = 3) [mg/mL] | IC50 (kynurenine-3-hydroxylase [2]) [nM] | IC50 (kynurenine-3-hydroxylase [3]) [nM] | Structure (SMILES)
1 | 0.2 | 15 | – | – | – | NC(CC(=O)c1ccc(Cl)c(Cl)c1)C(=O)O (racemic) [PNU 156561, (R,S)-2-amino-4-(3',4'-dichlorophenyl)-4-oxo-butanoic acid hydrochloride, reference compound]
2 | 18 | 36 | 38 | 120 | 420 | NC(CC(=O)c1ccc(F)c(F)c1)C(=O)O (racemic) [PNU 156830, (R,S)-2-amino-4-(3',4'-difluorophenyl)-4-oxo-2-butanoic acid hydrochloride]
3 | – | – | – | – | 10900 | N[C@H](CC(=O)c1ccc(F)c(F)c1)C(=O)O [PNU 158392, (R)-2-amino-4-(3',4'-difluorophenyl)-4-oxo-2-butanoic acid hydrochloride]
4 | – | – | – | – | 220 | N[C@@H](CC(=O)c1ccc(F)c(F)c1)C(=O)O [PNU 158393, (S)-2-amino-4-(3',4'-difluorophenyl)-4-oxo-2-butanoic acid hydrochloride]
